Series [1] addresses T1, sEH (Homo sapiens, UniProt P34913).
T1 sequence (P34913 1-555): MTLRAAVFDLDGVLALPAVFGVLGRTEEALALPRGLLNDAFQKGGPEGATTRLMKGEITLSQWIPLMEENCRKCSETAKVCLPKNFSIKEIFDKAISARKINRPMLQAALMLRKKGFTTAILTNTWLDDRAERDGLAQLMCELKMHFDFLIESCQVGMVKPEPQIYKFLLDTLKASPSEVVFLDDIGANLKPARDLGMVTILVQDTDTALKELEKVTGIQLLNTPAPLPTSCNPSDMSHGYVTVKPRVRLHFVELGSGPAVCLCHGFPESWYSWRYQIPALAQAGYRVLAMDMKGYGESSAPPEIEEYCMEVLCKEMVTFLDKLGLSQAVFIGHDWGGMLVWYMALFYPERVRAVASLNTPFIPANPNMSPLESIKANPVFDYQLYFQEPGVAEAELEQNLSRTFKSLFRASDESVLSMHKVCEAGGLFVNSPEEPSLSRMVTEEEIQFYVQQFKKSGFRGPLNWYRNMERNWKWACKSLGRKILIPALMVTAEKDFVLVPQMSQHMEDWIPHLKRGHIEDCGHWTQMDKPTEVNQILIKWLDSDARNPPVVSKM
The series is described as follows: sEH inhibition, fluorescent assay with CMNPC substrate (percent inhibition and IC50). It is filed as biochemical. The following applies: for IC50: procedure similar to the percent inhibition procedure. As for the experimental part: The substrate for the reaction was:
Therefore, well A2 would refer to a well in the first row and second column of the plate.
In a black 96 well plate, all the wells are filled with 150 μL of buffer A (Buffer A: Bis/Tris HCl, 25 mM, pH 7.0 plus 0.1 mg/mL BSA). DMSO (2 microliters) was added in well A2 and A3, and then was added 2 μL of inhibitor solution in A1 and A4 through A12. […] The plate was incubated for 5 minutes in the plate reader at 30° C. During incubation, the working solution of substrate was prepared by mixing 3.68 mL of buffer A with 266 μL of 0.5 mM substrate solution. At t=0, 30 μL of working substrate solution was added and readings were started ([S]final: 5 μM).

Series [2] has as its system wild-type mice on high-fat, high-fructose diet (HF) or standard chow (NC). Description: Metabolic Syndrome Model 2: diet induced obesity mouse model. It is filed as in vivo. The following applies: for weight gain, HF-fed animals / total plasma cholesterol / glucose tolerance (GTT) / statistical significance of attenuated weight gain: HF diet; for weight gain, HF-fed animals: 60 mg/kg twice daily (Losartan 10 mg/kg/day in drinking water); for weight gain, HF-fed animals / total plasma cholesterol / glucose tolerance (GTT): vs vehicle; for total plasma cholesterol: 60 mg/kg twice daily, 4 weeks; for glucose tolerance (GTT): after 4 weeks of dosing 60 mg/kg twice daily; for statistical significance of attenuated weight gain: from second week of dose administration. An excerpt: Seven groups of 10 wild-type mice were entered onto the study. Five groups were placed on an ad libitum high-fat, high-fructose diet (HF); two groups were fed ad libitum with standard rodent chow and water (NC). Animals were maintained on the respective diet for the entire 12 weeks of the study. […] Losartan (Cozaar®) is a compound approved by the FDA for the treatment of hypertension, reducing the risk of stroke in a patient with hypertension and left ventricular hypertrophy, and treatment of diabetic nephropathy with an elevated serum […] and proteinuria in patients with type 2 diabetes and a history of hypertension.
Glucose tolerance tests (GTTs) were performed in Week 7 (prior to the start of dosing) and Week 12 (after 4 weeks of dosing). Body weights were recorded semi-weekly throughout the study whereas chow consumption and liquid intake were recorded weekly. Plasma was collected from untreated (Week 7, prior to the start of dosing) and treated (at the end of in-life) animals and submitted for the determination of plasma cholesterol. At the end of the in-life period, animals were sacrificed after terminal bleeds and discarded; no necropsies were performed.

The subject of series [3] is male C57Bl/6 mice on high-fat, high-fructose diet. The series is described as follows: Metabolic Syndrome Model 1: diet induced obesity mouse model. Format: in vivo. As for the experimental part:
A diet induced obesity mouse model was used to evaluate the efficacy of the sEH inhibitor 1-[1-(methylsulfonyl)piperidin-4-yl]-3-(adamant-1-yl)urea (Compound 5) for the treatment of metabolic syndrome and the adverse conditions related thereto.
The study was performed using 7-8 week old male C57Bl/6 mice. The mice were acclimated a minimum of five days prior to the start of study and were housed five per cage in microisolators in a 12:12 light/dark cycle (all work was done in a BioBubble Hood™). Water and food was provided ad libitum.
The mice were provided a high-fat, high-fructose diet for a total of 11 weeks, within the first 5 weeks the animals became obese, insulin resistant, have increased plasma cholesterol and mildly hypertensive. The mice were separated into three groups, each group consisting of 10 mice after the first 5 weeks on the high-fat, high-fructose diet. The mice continued to receive the high-fat, high-fructose diet but also began to receive treatment for the remaining 6 weeks of the study for a total of 11 weeks of study. During the treatment phase, Group 1 was administered vehicle alone, perorally, twice a day for six weeks (control group); group 2 was administered 20 mg/kg of Compound 5, perorally, twice a day for six weeks; group 3 was administered 60 mg/kg Compound 5, perorally, twice a day for six weeks. At intervals of 3 and 5.5 weeks after the beginning of the treatment phase of the study, glucose tolerance tests were administered. At the beginning of the treatment phase and after 5 weeks of dosing, samples were collected for plasma cholesterol measurements. Blood pressure was measured 3 weeks after the start of the treatment phase of the study.
HF diet with 45% fat by calorie (Research Diets, D12451)
High-Fructose (degassed 7up)
Group 2) High-Fat Diet+Compound 5-20 mg/kg p.o. (perorally) b.i.d. (twice a day)
Group 3) High-Fat Diet+Compound 5-60 mg/kg p.o. (perorally) b.i.d. (twice a day)
Throughout duration of the study body weight, food, and fructose consumption was measured twice a week. Blood pressure and heart rate was measured one week.
Mice were randomized on the basis of average Body Weight in each of the three groups (n=10/gp).
GTT—Animals were fasted for 4 hours followed by a glucose load (2 g/kG body wt). The tip (3 mm) of the tail was excised and blood samples were taken for glucose clearance measurements (Glucometer) at T=0, 15, 30, 60, 90, and 120 minutes. This test determines if the animal is has glucose intolerance.
Plasma was analyzed using a lipid and chem panel analysis (Lipid-total cholesterol, HDL, LDL and Triglycerides, FFA).
p.o. (perorally) dosing of Compound 5 at 20 mg/kg and at 60 mg/kg begins b.i.d. twice a day) for […]
Measure blood pressure using a non-invasive CODA 6 occlusion cuff system

Turning to `O=C(Nc1ccc(C(F)(F)F)cc1)Nc1cccc(C(=O)N2CCOCC2)c1` [Compound 1, 1-[3-(morpholino-4-carbonyl)phenyl]-3-(4-trifluoromethylphenyl) urea], the “% Inhibition” value in series [1] (Concentration 50 nM) is 82%.

On to `CC(=O)N1CCC(NC(=O)Nc2ccc(C(F)(F)F)cc2)CC1` [Compound 3, 1-[1-(acetyl)piperidin-4-yl]-3-(4-trifluoromethylphenyl) urea], for which, in series [2], the “weight gain, HF-fed animals” value was “gained less weight”; the total plasma cholesterol entry is “slight elevation of total cholesterol”; the “glucose tolerance (GTT)” value is reported as “statistically significant improvements in glucose tolerance”; the “statistical significance of attenuated weight gain” value is “statistically significant”.

For `CS(=O)(=O)N1CCC(NC(=O)Nc2ccc(C(F)(F)F)cc2)CC1` [Compound 4, 1-[1-(methylsulfonyl)piperidin-4-yl]-3-(4-trifluoromethylphenyl) urea], in series [2], the “weight gain, HF-fed animals” value was “gained less weight”; the total plasma cholesterol result is recorded as “decreases in total plasma cholesterol level, although not statistically significant”; the “glucose tolerance (GTT)” value was “statistically significant improvements in glucose tolerance”.

With `CS(=O)(=O)N1CCC(NC(=O)NC23CC4CC(CC(C4)C2)C3)CC1` [Compound 5, 1-[1-(methylsulfonyl)piperidin-4-yl]-3-(adamant-1-yl) urea], in series [3] (60 mg/kg twice a day, vs vehicle, p<0.01), the cholesterol level result was “statistically lower cholesterol level”. In addition, in series [3] (60 mg/kg twice a day, vs vehicle, p<0.05), the blood pressure result is recorded as “statistically significantly lower blood pressure”. Besides, the heart rate entry in series [3] (20 and 60 mg/kg b.i.d.) was “did not significantly alter heart rate”. Besides, in series [3] (20 and 60 mg/kg b.i.d., 3 weeks of treatment, vs control), the “systolic and diastolic blood pressure” value is given as “reduced”. In addition, the “serum glucose in GTT” value in series [3] (20 and 60 mg/kg p.o. b.i.d., relative to control group) is recorded as “decrease in serum glucose”. Besides, the “area under the curve for plasma glucose after interperitonial glucose” value in series [3] (both 20 and 60 mg/kg twice a day, vs vehicle and start of treatment, p<0.01) is listed as “statistically lower area under the curve”. In addition, the body weight result in series [3] (either dose (20 or 60 mg/kg p.o. b.i.d.), vs vehicle) is “stabilization in body weight”. Moreover, the plasma cholesterol levels result in series [3] (relative to control group, 5 weeks of dosing) is reported as “reduced”. In series [3] (vs control group), the mean blood pressure entry was “similarly reduced”. Besides, in series [2], the “weight gain, HF-fed animals” value is given as “gained less weight”; the total plasma cholesterol entry is “statistically significant decreases in cholesterol”; the “glucose tolerance (GTT)” value was “statistically significant improvements in glucose tolerance”; the “statistical significance of attenuated weight gain” value is on record as “statistically significant”. In addition, the “body weights, animals on NC” value in series [2] (NC diet, Compound 5 60 mg/kg twice daily vs vehicle) is “similar”.

With `CC(C)(C)CC(=O)N1CCC(NC(=O)Nc2ccc(C(F)(F)F)cc2)CC1` [Compound 7, 1-(1-(3,3-dimethylbutanoyl)piperidin-4-yl)-3-(4-(trifluoromethyl)phenyl)urea], in series [1], it took 0.8 nM to reach half-maximal inhibition (IC50).

For the molecule `CC(=O)N1CCC(NC(=O)Nc2cccc(C(F)(F)F)c2)CC1` [Compound 9, 1-(1-Acetyl-piperidin-4-yl)-3-(3-trifluoromethyl-phenyl)-urea], in series [1], the IC50 was determined as 10.1 nM.

The molecule `CC(C)OC(=O)N1CCC(NC(=O)Nc2ccc(C(F)(F)F)cc2)CC1` [Compound 11, isopropyl 4-(3-(4-(trifluoro-methyl)phenyl)ureido)-piperidine-1-carboxylate] displayed an IC50 in series [1] of 0.8 nM.

As to `O=C(NC1CCCCC1)NC1CCN(C(=O)c2ccccn2)CC1` [Compound 12, 1-cyclohexyl-3-(1-picolinoylpiperidin-4-yl)urea], half-maximal inhibition in series [1] (IC50) was put at 5.3 nM.

`CC(C)S(=O)(=O)N1CCC(NC(=O)Nc2ccc(OC(F)(F)F)cc2)CC1` [Compound 13, 1-(1-(isopropylsulfonyl)piperidin-4-yl)-3-(4-(trifluoromethoxy)phenyl)urea]: inhibition in series [1] was half-maximal at 1.6 nM (IC50).

As for `O=C(Nc1ccc(C(F)(F)F)cc1)NC1CCN(c2ccc(C(F)(F)F)cn2)CC1` [Compound 14, 1-(4-(trifluoromethyl)-phenyl)-3-(1-(5-(trifluoromethyl)-pyridin-2-yl)piperidin-4-yl)urea], half-maximal inhibition in series [1] (IC50) required 7.5 nM.

Molecule `CC(C)OC(=O)N1CCC(NC(=O)Nc2ccc(OC(F)(F)F)cc2)CC1` [Compound 15, isopropyl 4-(3-(4-(trifluoromethoxy)phenyl)ureido)piperidine-1-carboxylate] registered an IC50 in series [1] of 2.1 nM.

Regarding `O=C(Nc1ccc(C(F)(F)F)cc1)Nc1ccc(Oc2ccccc2)nc1` [Compound 16, 1-(6-phenoxypyridin-3-yl)-3-(4-(trifluoromethyl)phenyl)urea], the half-inhibitory concentration (IC50) in series [1] amounted to 7.1 nM. Against the preceding molecule, the IC50 is about 3.4-fold higher.

In series [1], `CC(=O)NC1CCC(NC(=O)Nc2ccc(C(F)(F)F)cc2)CC1` (stereo not drawn) [Compound 17, N-(4-(3-(4-(trifluoromethyl)phenyl)ureido)cyclohexyl)acetamide] gave an IC50 of 6.2 nM. The IC50 values of the last two molecules are within 1.5-fold of each other.

With `O=C(Nc1ccc(C(F)(F)F)cc1)Nc1ccc(S(=O)(=O)c2ccccc2)cc1` [Compound 18, 1-(4-benzenesulfonyl-phenyl)-3-(4-trifluoromethyl-phenyl)-urea], in series [1], half-maximal inhibition (IC50) required 3.8 nM. Compared with the last molecule, the IC50 is about 1.6-fold lower.

On to `CCCCc1nc(Cl)c(CO)n1Cc1ccc(-c2ccccc2-c2nn[nH]n2)cc1` [Losartan, reference compound], for which the “weight gain, HF-fed animals” value in series [2] is given as “gained less weight”.

For the origin of these results see patent US20090197916A1, “SOLUBLE EPOXIDE HYDROLASE INHIBITORS FOR TREATMENT OF METABOLIC SYNDROME AND RELATED DISORDERS” (Arete Therapeutics, Inc, priority 2007, published 2009).
